Test: pH dependence of ketone-hydrate equilibrium (31P NMR, absorbance 420 nm)
Type: physicochemical
From the text: The ketone 13a and hydrate forms 13b are simultaneously detectable by ^31P, and also via the visible absorbance (420 nm) of the ketone chromophore (yellow). At low pH, the hydrate form 13b predominates, the phosphorus NMR peak shifting from −2 to 15 ppm. The reaction is reversible, the ketone reforming as the pH is increased. The pH at which 50% of the ketone is transferred to its hydrate form (‘pK’) is 2.2 (rt, 10^−7M in D2O). This unequivocally coincides with the protonation of the phosphonate function. Upon addition of MgCl2, the apparent ‘pK’ of the equilibrium shifts by nearly 2 pH units towards left to reach 4.2 (FIG. 4).
We, report here synthesis and characterization of the first example of a new class of nucleotide analog, in which the α,β-phosphoric anhydride oxygen of the 5′-diphosphate moiety is replaced by a reactive carbonyl group: the carbonylbisphosphonate analog of 3′-azido-3′desoxythymidine 5′-diphosphate, 13. The structures of 13 and its diazomethylenebisphosphonate precursor 12 were confirmed by ^1H, ^13C and ^31P NMR, and high-resolution mass spectrometry. The ketone and hydrate forms of 13 are simultaneously detectable by ^31P, and also via the visible absorbance (420 nm) of the ketone chromophore. At low pH, the hydrate form predominates, the phosphorus NMR peak shifting from −2 to 15 ppm. The reaction is reversible, the ketone reforming as the pH is increased. Addition of Mg^2+ shifts the ‘pK’ of the equilibrium by nearly 2 pH units. (See FIG. 4).

shift of the 'pK' of the equilibrium on addition of Mg2+ (addition of MgCl2 / Mg^2+): ~2 pH units
pH at which 50% of the ketone is transferred to its hydrate form ('pK') (rt, 10^−7M in D2O, no Mg): 2.2
apparent 'pK' of the ketone-hydrate equilibrium (upon addition of MgCl2): 4.2
Structure (SMILES): Cc1cn([C@H]2C[C@H](N=[N+]=[N-])[C@@H](COP(=O)(O)C(=O)P(=O)(O)O)O2)c(=O)[nH]c1=O [Compound 13a, 3′-Azido-3′-Deoxythymidine 5′-Carbonylbisphosphonate]

Source: US7462733B2, “Preparation and use of α-keto phosphonates” (University of Southern California, priority 2001, dated 2008)
